Active and inactive are the calls of the source. The rule behind the calls is not given here.
Assays:
Pseudomonas aeruginosa = test: Inhibition of Pseudomonas aeruginosa His-6-tagged PqsD expressed in Escherichia coli BL21 (lambdaDE3) using anthraniloyl-CoA/beta-ketodecanoic acid at 10 uM as substrate by LC-MS/MS analysis
Escherichia coli = test: Inhibition of Escherichia coli RNAP assessed as incorporation of [5,6-3H]UTP at 100 uM preincubated for 10 mins followed by DNA template and ATP, CTP, GTP, UTP, [5,6-3H]UTP addition measured after 10 mins by scintillation counting analysis

inhibition (Pseudomonas aeruginosa): inactive | inhibition (Escherichia coli): 15%
SMILES: O=C(O)c1ccc(NC(=O)c2ccc(-c3ccccc3)cc2)cc1
